Assay results from ChEMBL document CHEMBL3352018 (J Med Chem, 2014).
pIC50, pKi: −log10 of the molar value. The source made the active and inactive calls. No cut-off for these calls is given here.

How the values were obtained:
Type in all cases: cell-based
[1] = target: T1, Sodium-dependent neutral amino acid transporter B(0)AT2 (Homo sapiens, UniProt Q9H2J7); test: Inhibition of eGFP-tagged human B0AT2 expressed in HEK293 cells measured within 10 mins by [3H]proline uptake assay
T1 sequence (Q9H2J7 whole entry): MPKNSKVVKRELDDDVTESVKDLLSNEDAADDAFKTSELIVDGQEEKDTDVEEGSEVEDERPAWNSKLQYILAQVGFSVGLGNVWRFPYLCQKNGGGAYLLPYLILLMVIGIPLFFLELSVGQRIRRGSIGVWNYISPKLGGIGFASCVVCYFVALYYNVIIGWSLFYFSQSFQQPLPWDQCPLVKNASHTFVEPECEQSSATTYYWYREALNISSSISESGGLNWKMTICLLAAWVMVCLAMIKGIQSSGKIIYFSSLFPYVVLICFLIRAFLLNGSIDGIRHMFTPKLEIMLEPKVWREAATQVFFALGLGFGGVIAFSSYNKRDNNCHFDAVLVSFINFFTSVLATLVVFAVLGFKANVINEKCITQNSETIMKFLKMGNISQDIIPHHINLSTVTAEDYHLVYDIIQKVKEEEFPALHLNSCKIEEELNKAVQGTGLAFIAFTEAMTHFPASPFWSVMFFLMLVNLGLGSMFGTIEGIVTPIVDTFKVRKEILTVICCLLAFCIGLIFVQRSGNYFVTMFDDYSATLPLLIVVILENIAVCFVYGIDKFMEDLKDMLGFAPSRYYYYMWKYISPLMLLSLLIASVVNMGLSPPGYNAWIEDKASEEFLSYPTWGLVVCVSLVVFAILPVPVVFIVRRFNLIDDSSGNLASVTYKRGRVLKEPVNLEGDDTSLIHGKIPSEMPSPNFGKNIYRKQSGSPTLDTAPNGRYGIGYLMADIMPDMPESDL

[2] = target: T2, Sodium-dependent neutral amino acid transporter B(0)AT2 (Homo sapiens) (UniProt Q9H2J7); test: Inhibition of eGFP-tagged human B0AT2 expressed in HEK293 cells assessed as reduction in proline-induced inward current at 100 uM by patch clamp assay
T2 sequence (whole entry): T1 sequence (Q9H2J7 whole entry)

[3] = target: T2, Sodium-dependent neutral amino acid transporter B(0)AT2 (Homo sapiens); test: Activation of eGFP-tagged human B0AT2 expressed in HEK293 cells assessed as induction of inward current at 100 uM by patch clamp assay
[4] = target: T2, Sodium-dependent neutral amino acid transporter B(0)AT2 (Homo sapiens); test: Reversible inhibition of eGFP-tagged human B0AT2 expressed in HEK293 cells assessed as reduction in proline-induced inward current at 100 uM measured post drug wash out by patch clamp assay
[5] = target: Histamine H1 receptor (Homo sapiens, UniProt P35367); test: Displacement of [3H]mepyramine from human histamine H1 receptor expressed in Sf9 cells by scintillation counting method
[6] = target: T2, Sodium-dependent neutral amino acid transporter B(0)AT2 (Homo sapiens); test: Inhibition of eGFP-tagged human B0AT2 expressed in HEK293 cells at 5 mM measured within 10 mins by [3H]proline uptake assay

Histamine H1 receptor, sequence (P35367 whole entry): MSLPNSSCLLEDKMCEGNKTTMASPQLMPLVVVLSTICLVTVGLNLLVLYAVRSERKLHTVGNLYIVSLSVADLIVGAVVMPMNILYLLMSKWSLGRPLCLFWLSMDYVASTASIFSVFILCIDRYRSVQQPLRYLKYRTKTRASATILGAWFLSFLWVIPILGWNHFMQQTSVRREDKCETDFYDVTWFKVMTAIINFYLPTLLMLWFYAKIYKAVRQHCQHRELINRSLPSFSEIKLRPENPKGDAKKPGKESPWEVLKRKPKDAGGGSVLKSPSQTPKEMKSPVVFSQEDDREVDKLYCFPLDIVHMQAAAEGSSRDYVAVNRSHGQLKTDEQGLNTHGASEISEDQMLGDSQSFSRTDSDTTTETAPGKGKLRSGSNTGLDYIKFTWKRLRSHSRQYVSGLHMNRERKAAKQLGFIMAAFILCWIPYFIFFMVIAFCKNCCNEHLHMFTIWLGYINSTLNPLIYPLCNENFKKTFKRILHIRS

Row | Structure (SMILES) | pIC50 [1] | also measured
1 | CC(C)OC(=O)N1CCC(=C2c3ccc(Cl)cc3CCc3cccnc32)CC1 | 4.77 | –
2 | CN1CCC(=C2c3ccc(Cl)cc3CCc3cccnc32)CC1 | < 4.10 | –
3 | CCSC(=O)N1CCC(=C2c3ccc(Cl)cc3CCc3cccnc32)CC1 | 5.28 | –
4 | CCCOC(=O)N1CCC(=C2c3ccc(Cl)cc3CCc3cccnc32)CC1 | 5.34 | –
5 | CCCS(=O)(=O)N1CCC(=C2c3ccc(Cl)cc3CCc3cccnc32)CC1 | < 4.10 | –
6 | CC(C)COC(=O)N1CCC(=C2c3ccc(Cl)cc3CCc3cccnc32)CC1 | 5.11 | pKi [5]: 5.89
7 | O=C(Cc1ccccc1)N1CCC(=C2c3ccc(Cl)cc3CCc3cccnc32)CC1 | 4.79 | –
8 | CC(C)(C)OC(=O)N1CCC(=C2c3ccc(Cl)cc3CCc3cccnc32)CC1 | < 4.10 | –
9 | CC(C)CC(=O)N1CCC(=C2c3ccc(Cl)cc3CCc3cccnc32)CC1 | 4.97 | pKi [5]: 6.54
10 | CCNC(=O)N1CCC(=C2c3ccc(Cl)cc3CCc3cccnc32)CC1 | 4.46 | –
11 | CCOC(=O)N1CCC(=C2c3ccc(Cl)cc3CCc3cc(OC)cnc32)CC1 | 5.35 | pKi [5]: 5.71
12 | CC(C)C(=O)N1CCC(=C2c3ccc(Cl)cc3CCc3cccnc32)CC1 | 4.38 | –
13 | C/C=C/C(=O)N1CCC(=C2c3ccc(Cl)cc3CCc3cccnc32)CC1 | 5.30 | pKi [5]: 6.82
14 | Clc1ccc2c(c1)CCc1cccnc1C2=C1CCNCC1 [DESLORATADINE] | 3.76 | –
15 | C=CCOC(=O)N1CCC(=C2c3ccc(Cl)cc3CCc3cccnc32)CC1 | 5.31 | –
16 | O=C(OCc1ccccc1)N1CCC(=C2c3ccc(Cl)cc3CCc3cccnc32)CC1 | < 4.10 | –
17 | CC(=O)N1CCC(=C2c3ccc(Cl)cc3CCc3cccnc32)CC1 [SCH-37370] | 4.26 | –
18 | O=C(Oc1ccccc1)N1CCC(=C2c3ccc(Cl)cc3CCc3cccnc32)CC1 | < 4.10 | –
19 | CC(C)C[C@@H](N)C(=O)N1CCC(=C2c3ccc(Cl)cc3CCc3cccnc32)CC1 | 5.11 | pKi [5]: 5.33
20 | CCCCCC(=O)N1CCC(=C2c3ccc(Cl)cc3CCc3cccnc32)CC1 | 5.28 | –
21 | COC(=O)N1CCC(=C2c3ccc(Cl)cc3CCc3cccnc32)CC1 | 4.71 | –
22 | CCCCC(=O)N1CCC(=C2c3ccc(Cl)cc3CCc3cccnc32)CC1 | 5.47 | pKi [5]: 6.83
23 | Cc1cncc(CN2CCC(=C3c4ccc(Cl)cc4CCc4cccnc43)CC2)c1 [RUPATADINE] | < 4.40 | –
24 | CC(C)[C@@H](N)C(=O)N1CCC(=C2c3ccc(Cl)cc3CCc3cccnc32)CC1 | 4.41 | –
25 | NC1(C(=O)O)CC2CCC1C2 (stereo unspecified) | – | inhibition [6]: 80%

The next lines start with results.

Row | pIC50 [1] | Structure (SMILES) | also measured
26 | 4.58 | COCC(=O)N1CCC(=C2c3ccc(Cl)cc3CCc3cccnc32)CC1 | –
27 | 4.75 | CCOC(=O)N1CCC(=C2c3ccc(Cl)cc3CCc3cc(O)cnc32)CC1 | –
28 | 5.40 | CCOC(=O)N1CCC(=C2c3ccc(Cl)cc3CCc3cccnc32)CC1 [LORATADINE] | inhibition [2]: Active; Activity [3]: inactive; inhibition [4]: Active
29 | 4.91 | CCOC(=O)N1CCC(=C2c3ccc(Cl)cc3CCc3ccc(C(=O)OC)nc32)CC1 | pKi [5]: < 5.00
30 | 5.24 | O=C(CC1CCCCC1)N1CCC(=C2c3ccc(Cl)cc3CCc3cccnc32)CC1 | pKi [5]: 6.36
31 | 5.31 | CCCC(=O)N1CCC(=C2c3ccc(Cl)cc3CCc3cccnc32)CC1 | pKi [5]: 6.77
32 | < 4.10 | CCOC(=O)N1CCC(=C2c3ccc(Cl)cc3CCc3ccc(CO)nc32)CC1 | –
33 | 4.64 | NCC(=O)N1CCC(=C2c3ccc(Cl)cc3CCc3cccnc32)CC1 | –
34 | 4.44 | CCC(=O)N1CCC(=C2c3ccc(Cl)cc3CCc3cccnc32)CC1 | –
35 | < 4.10 | CCOC(=O)N1CCC(=C2c3ccc(Cl)cc3CCc3c(C#N)ccnc32)CC1 | –
36 | 4.73 | NCCC(=O)N1CCC(=C2c3ccc(Cl)cc3CCc3cccnc32)CC1 | –
37 | 4.83 | CCOC(=O)N1CC=C(C2c3ccc(Cl)cc3CCc3cccnc32)CC1 (stereo unspecified) | –
38 | 4.74 | CCOC(=O)N1CCC(=C2c3ccc(Cl)cc3CCc3c(CO)ccnc32)CC1 | –
39 | < 4.10 | CCOC(=O)N1CCC(=C2c3ccc(Cl)cc3CCc3ccc(C#N)nc32)CC1 | –
